Assay results reported in ChEMBL document CHEMBL1201862, “PubChem BioAssay data set” (2004).
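Briefly, cells in 96-well plates were exposed to five compound concentrations for 48 h, and endpoints were estimated by linear interpolation. GI50 is the concentration that inhibits growth by half.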 Activity calls are given as the source filed them. No stated cut-off is given here; in the data, active = GI50 up to about 1.1 µM and inactive = higher.

Assays:
Experiment in all cases: NCI tumour cell line growth inhibition, 48 h
[1] = test system: SK-OV-3
[2] = test system: TK-10
[3] = test system: UO-31
[4] = test system: UACC-62
[5] = test system: U-251
[6] = test system: HL-60
[7] = test system: 786-0
[8] = test system: NCI-H23
[9] = test system: HCC 2998
[10] = test system: SF-268
[11] = test system: NCI-H226
[12] = test system: A549
[13] = test system: Malme-3M
[14] = test system: HOP-62
[15] = test system: NCI-H522
[16] = test system: HCT-15
[17] = test system: M14
[18] = test system: SNB-75
[19] = test system: SK-MEL-28
[20] = test system: RXF 393

Row | Structure (SMILES) | GI50 [1] | GI50 [2] | GI50 [3] | GI50 [4] | GI50 [5] | GI50 [6] | GI50 [7] | GI50 [8] | GI50 [9] | GI50 [10] | GI50 [11] | GI50 [12] | GI50 [13] | GI50 [14] | GI50 [15] | GI50 [16] | GI50 [17] | GI50 [18] | GI50 [19] | GI50 [20]
1 | C=C1CCC23CC(CC[C@@H]2[C@@]12C[C@@H](c1ccoc1)OC2=O)OC3=O (some centres not stated) | > 100 µM (inactive) | > 100 µM (inactive) | > 100 µM (inactive) | > 100 µM (inactive) | > 100 µM (inactive) | > 100 µM (inactive) | > 100 µM (inactive) | > 100 µM (inactive) | > 100 µM (inactive) | > 100 µM (inactive) | > 100 µM (inactive) | > 100 µM (inactive) | > 100 µM (inactive) | > 100 µM (inactive) | > 100 µM (inactive) | > 100 µM | > 100 µM (inactive) |  |  | 
2 | CC(C)C(N)C(=O)NC(CCC(=O)NCCCCC(N)C(=O)NCCCNc1ccc([N+](=O)[O-])c2[nH]c3ccccc3c(=O)c12)C(N)=O (configuration not stated) | 44.3 µM (inactive) | > 100 µM (inactive) | 24.4 µM (inactive) | 25.2 µM (inactive) | 26.7 µM (inactive) |  | 35.8 µM (inactive) | 88.7 µM (inactive) | 40.2 µM (inactive) | 58.7 µM (inactive) | 50.9 µM (inactive) | 27.3 µM (inactive) |  | 92.3 µM (inactive) |  | 41.2 µM | 75.3 µM (inactive) | 48.9 µM (inactive) | > 100 µM (inactive) | 11 µM (inactive)
3 | CCOC(=O)C1=C(C)N(NC(N)=O)C(C)(O)C12CCOC2=O (configuration not stated) | > 100 µM (inactive) |  | > 100 µM (inactive) | > 100 µM (inactive) | > 100 µM (inactive) | > 100 µM (inactive) | > 100 µM (inactive) |  | > 100 µM (inactive) | > 100 µM (inactive) | > 100 µM (inactive) | > 100 µM (inactive) | > 100 µM (inactive) | > 100 µM (inactive) | > 100 µM (inactive) | > 100 µM | > 100 µM (inactive) | > 100 µM (inactive) | > 100 µM (inactive) | 
4 | CN1C(=O)C(O)C[C@@H]1c1ccc(F)cc1 (some centres not stated) | > 100 µM (inactive) | > 100 µM (inactive) | > 100 µM (inactive) | > 100 µM (inactive) | > 100 µM (inactive) | > 100 µM (inactive) | > 100 µM (inactive) | > 100 µM (inactive) | > 100 µM (inactive) |  | > 100 µM (inactive) | > 100 µM (inactive) |  | > 100 µM (inactive) |  | > 100 µM | > 100 µM (inactive) |  | > 100 µM (inactive) | > 100 µM (inactive)
5 | O=C(O)COc1ccccc1C(=O)Nc1ccccc1 | > 100 µM (inactive) | > 100 µM (inactive) | > 100 µM (inactive) | > 100 µM (inactive) | > 100 µM (inactive) | > 100 µM (inactive) | > 100 µM (inactive) | > 100 µM (inactive) |  | > 100 µM (inactive) | > 100 µM (inactive) | > 100 µM (inactive) | > 100 µM (inactive) | > 100 µM (inactive) | > 100 µM (inactive) | > 100 µM | > 100 µM (inactive) | 77.8 µM (inactive) | > 100 µM (inactive) | 
6 | CN(C)c1ccc(/C=C/c2ccc3ccccc3[n+]2C)cc1 | 5.73 µM (inactive) | 5.16 µM (inactive) | 2.07 µM (inactive) | 3.62 µM (inactive) | 2.38 µM (inactive) | 1.34 µM (inactive) | 6.76 µM (inactive) | 1.48 µM (inactive) | 4.13 µM (inactive) | 4.45 µM (inactive) | 3.13 µM (inactive) | 3.13 µM (inactive) | 4.53 µM (inactive) | 7.13 µM (inactive) |  | 6.65 µM | 4.12 µM (inactive) |  | 3.87 µM (inactive) | 2.81 µM (inactive)
7 | CCCCCCCCOC(CO)CO | > 100 µM (inactive) | > 100 µM (inactive) | > 100 µM (inactive) | > 100 µM (inactive) | > 100 µM (inactive) | > 100 µM (inactive) | > 100 µM (inactive) | > 100 µM (inactive) | > 100 µM (inactive) | > 100 µM (inactive) | > 100 µM (inactive) | > 100 µM (inactive) | > 100 µM (inactive) | > 100 µM (inactive) |  | > 100 µM | > 100 µM (inactive) |  | > 100 µM (inactive) | 
8 | C#Cc1c(C)c(/C=C/C(C)=C/C=C/C(C)=C/C(=O)OC)n(C)c1C | 0.428 µM (active) | > 100 µM (inactive) | > 100 µM (inactive) | 62.5 µM (inactive) | > 100 µM (inactive) | > 100 µM (inactive) | > 100 µM (inactive) | > 100 µM (inactive) |  | > 100 µM (inactive) |  | > 100 µM (inactive) | > 100 µM (inactive) | > 100 µM (inactive) | > 100 µM (inactive) | > 100 µM | > 100 µM (inactive) | 44.5 µM (inactive) | > 100 µM (inactive) | 
